According to PubChem BioAssay AID256 (DTP/NCI, 2004):
Values joined by “and” are separate entries in the source; they are usually repeats but may differ in a detail not shown here. Equal entries are not always repeated. Inconclusive results and toxic doses are left out. The calls were made as follows: active = survival T/C of 150% or more; inactive = T/C below 125% in these data.

Tested on: CD2F1 mice, L1210 leukemia ip, survival T/C
Test: NCI In Vivo Anticancer Drug Screen. Data for tumor model L1210 Leukemia (intraperitoneal) in CD2F1 (CDF1) mice
Details: higher = longer survival
Outline: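 Antitumor effect is scored in animals hosting a serially transplanted tumor. Values compare compound-dosed animals against vehicle-only controls as a simple quotient.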

[1] = endpoint: mean survival time, dose: 100.0 mg/kg/injection, schedule: Q04DX003 (ip), vehicle: saline with Tween-80
[2] = endpoint: mean survival time, dose: 200.0 mg/kg/injection, schedule: Q04DX003 (ip), vehicle: saline with Tween-80
[3] = endpoint: mean survival time, dose: 400.0 mg/kg/injection, schedule: Q04DX003 (ip), vehicle: saline with Tween-80
[4] = endpoint: mean survival time, dose: 100.0 mg/kg/injection, schedule: Q01DX009 (ip), vehicle: saline with Tween-80
[5] = endpoint: mean survival time, dose: 200.0 mg/kg/injection, schedule: Q01DX009 (ip), vehicle: saline with Tween-80
[6] = endpoint: mean survival time, dose: 400.0 mg/kg/injection, schedule: Q01DX009 (ip), vehicle: saline with Tween-80
[7] = endpoint: mean survival time, dose: 100.0 mg/kg/injection, schedule: Q04DX002 (ip), vehicle: saline with Tween-80
[8] = endpoint: mean survival time, dose: 50.0 mg/kg/injection, schedule: Q01DX009 (ip), vehicle: saline with Tween-80
[9] = endpoint: mean survival time, dose: 100.0 mg/kg/injection, schedule: Q01DX001 (ip), vehicle: saline
[10] = endpoint: mean survival time, dose: 200.0 mg/kg/injection, schedule: Q01DX001 (ip), vehicle: saline

Measured: T/C

O=CNc1ccc(C(=O)O)cc1
inactive: [1] 94 % of control | [2] 94 % of control | [3] 100 % of control

CC(C)C1(NC(=O)C2C=C3c4cccc5[nH]cc(c45)CC3N(C)C2)OC2(O)C3CCCN3C(=O)C(Cc3ccccc3)N2C1=O (centres undefined)
inactive: endpoint: mean survival time, dose: 50.0 mg/kg/injection, schedule: Q04DX003 (ip), vehicle: saline with Tween-80 96 % of control | [1] 105 % of control | [2] 100 % of control

O=C1CCC(=O)N1CCC1=NCCc2cc(OCc3ccccc3)ccc21
inactive: [4] 101 % of control | [1] 102 % of control | [5] 94 % of control | [2] 94 % of control | [6] 97 % of control | [3] 90 % of control

COC(=O)C(Br)C(OC)c1ccc(Cl)cc1 (centres undefined)
inactive: [4] 101 % of control | endpoint: mean survival time, dose: 100.0 mg/kg/injection, schedule: Q04DX003 (ip), vehicle: saline sonified 100 % of control | [5] 95 % of control | endpoint: mean survival time, dose: 200.0 mg/kg/injection, schedule: Q04DX003 (ip), vehicle: saline sonified 101 % of control | [6] 97 % of control | endpoint: mean survival time, dose: 400.0 mg/kg/injection, schedule: Q04DX003 (ip), vehicle: saline sonified 95 % of control

CNc1nc(-c2ccncc2)nc(N(C)C)n1
inactive: [7] 96 % of control | endpoint: mean survival time, dose: 200.0 mg/kg/injection, schedule: Q04DX002 (ip), vehicle: saline with Tween-80 88 % of control

COc1nc(OC)c2ccn(C3CC(O)C(CO)O3)c2n1 (centres undefined)
inactive: endpoint: median survival time, dose: 12.5 mg/kg/injection, schedule: Q01DX005 (ip), vehicle: saline 106 % of control | endpoint: median survival time, dose: 25.0 mg/kg/injection, schedule: Q01DX005 (ip), vehicle: saline 103 % of control | endpoint: median survival time, dose: 50.0 mg/kg/injection, schedule: Q01DX005 (ip), vehicle: saline 102 % of control | endpoint: median survival time, dose: 100.0 mg/kg/injection, schedule: Q01DX005 (ip), vehicle: saline 93 % of control | endpoint: median survival time, dose: 200.0 mg/kg/injection, schedule: Q01DX005 (ip), vehicle: saline 98 % of control

CCOC(=O)C1=C(NC(=O)Nc2cccc(C(F)(F)F)c2)SC2CCCCC12 (centres undefined)
inactive: [8] 94 % of control | [4] 91 % of control | [5] 87 % of control

C=C(C)c1ccc(C)c(C)c1
inactive: [4] 93 % of control | [5] 98 % of control | [6] 114 % of control

O=Cc1cc2c(cc1Br)OCO2
inactive: [4] 98 % of control | [1] 98 % of control | [5] 97 % of control | [2] 101 % of control | [6] 92 % of control | [3] 98 % of control

CCOC(=O)Nc1cc(Cl)c2nnn(C(=O)OCC)c2n1
inactive: endpoint: mean survival time, dose: 12.5 mg/kg/injection, schedule: Q01DX005 (ip), vehicle: water 105 % of control | endpoint: mean survival time, dose: 25.0 mg/kg/injection, schedule: Q01DX005 (ip), vehicle: water 98 % of control | endpoint: mean survival time, dose: 50.0 mg/kg/injection, schedule: Q01DX005 (ip), vehicle: water 96 % of control | endpoint: mean survival time, dose: 100.0 mg/kg/injection, schedule: Q01DX005 (ip), vehicle: water 105 % of control

COC1OC2COc3ccccc3OC2C(NC(=O)Oc2ccccc2)C1O (centres undefined)
inactive: endpoint: mean survival time, dose: 100.0 mg/kg/injection, schedule: Q01DX001 (ip), vehicle: saline with Tween-80 94 % of control | endpoint: mean survival time, dose: 200.0 mg/kg/injection, schedule: Q01DX001 (ip), vehicle: saline with Tween-80 94 % of control | endpoint: mean survival time, dose: 400.0 mg/kg/injection, schedule: Q01DX001 (ip), vehicle: saline with Tween-80 91 % of control

O=CN(SSN(C=O)C1CCCCC1)C1CCCCC1
inactive: endpoint: mean survival time, dose: 12.5 mg/kg/injection, schedule: Q01DX009 (ip), vehicle: saline with Tween-80 95 % of control and 103 % of control | endpoint: mean survival time, dose: 25.0 mg/kg/injection, schedule: Q01DX009 (ip), vehicle: saline with Tween-80 100 % of control and 108 % of control | [8] 94 % of control and 105 % of control | [4] 94 % of control and 98 % of control | [5] 94 % of control and 103 % of control | [6] 93 % of control and 102 % of control

CC(CO)CCC(=O)C(C)C1C2(CC3C4CCC5CC(O)CCC5(C)C4CCC31C)SCCS2 (centres undefined)
inactive: [7] 86 % of control | endpoint: mean survival time, dose: 400.0 mg/kg/injection, schedule: Q04DX002 (ip), vehicle: saline with Tween-80 92 % of control

CS(=O)(=O)c1cnnc2ccccc12
inactive: [1] 98 % of control | [2] 93 % of control | [3] 86 % of control

CCCCCCCCCCCC(=O)Nc1ccc(C(C)C)cc1
inactive: [1] 97 % of control | [2] 96 % of control

CCC(/C=N\O)CC
inactive: [9] 100 % of control | [10] 108 % of control

COC1=CCC2=C(C1)CC(C)O2 (centres undefined)
inactive: endpoint: mean survival time, dose: 100.0 mg/kg/injection, schedule: Q01DX009 (ip), vehicle: acetone 102 % of control | endpoint: mean survival time, dose: 200.0 mg/kg/injection, schedule: Q01DX009 (ip), vehicle: acetone 107 % of control

O=[N+]([O-])c1ccc(/C(CBr)=N/N2CCCCCC2)cc1
inactive: [9] 91 % of control | [10] 92 % of control | endpoint: mean survival time, dose: 400.0 mg/kg/injection, schedule: Q01DX001 (ip), vehicle: saline 95 % of control

O=[N+]([O-])c1ccc(-c2ccccc2)c([As](=O)(O)O)c1
inactive: endpoint: mean survival time, dose: 6.25 mg/kg/injection, schedule: Q04DX002 (ip), vehicle: saline with Tween-80 124 % of control | endpoint: mean survival time, dose: 12.5 mg/kg/injection, schedule: Q04DX002 (ip), vehicle: saline with Tween-80 116 % of control | endpoint: mean survival time, dose: 25.0 mg/kg/injection, schedule: Q04DX002 (ip), vehicle: saline with Tween-80 104 % of control

CN=NC(C)C
inactive: [5] 113 % of control

CCSCCNC1=C(C)C(=O)C2=C(C1=O)[C@H](COC(N)=O)[C@]1(OC)[C@H]3[C@@H](CN21)N3C (some centres undefined)
inactive: endpoint: mean survival time, dose: 1.5 mg/kg/injection, schedule: Q01DX001 (ip), vehicle: distilled water + Tween-80 103 % of control | endpoint: mean survival time, dose: 3.0 mg/kg/injection, schedule: Q01DX001 (ip), vehicle: distilled water + Tween-80 96 % of control and 103 % of control and 109 % of control | endpoint: mean survival time, dose: 6.0 mg/kg/injection, schedule: Q01DX001 (ip), vehicle: distilled water + Tween-80 104 % of control and 107 % of control and 108 % of control | endpoint: mean survival time, dose: 12.0 mg/kg/injection, schedule: Q01DX001 (ip), vehicle: distilled water + Tween-80 115 % of control and 102 % of control and 110 % of control | endpoint: mean survival time, dose: 24.0 mg/kg/injection, schedule: Q01DX001 (ip), vehicle: distilled water + Tween-80 121 % of control and 124 % of control | endpoint: mean survival time, dose: 48.0 mg/kg/injection, schedule: Q01DX001 (ip), vehicle: distilled water + Tween-80 115 % of control

COc1cc2oc3c(C)c(=O)cc4oc(-c5ccccc5)cc(c2c2c1CCC(c1ccccc1)O2)c43 (centres undefined)
inactive: endpoint: median survival time, dose: 0.85 mg/kg/injection, schedule: Q01DX005 (ip), vehicle: Klucel (hydroxypropylcellulose) (HPC) 98 % of control | endpoint: median survival time, dose: 1.75 mg/kg/injection, schedule: Q01DX005 (ip), vehicle: Klucel (hydroxypropylcellulose) (HPC) 98 % of control | endpoint: median survival time, dose: 3.5 mg/kg/injection, schedule: Q01DX005 (ip), vehicle: Klucel (hydroxypropylcellulose) (HPC) 98 % of control and 102 % of control | endpoint: median survival time, dose: 7.0 mg/kg/injection, schedule: Q01DX005 (ip), vehicle: Klucel (hydroxypropylcellulose) (HPC) 100 % of control and 102 % of control | endpoint: median survival time, dose: 12.5 mg/kg/injection, schedule: Q01DX005 (ip), vehicle: saline with Tween-80 96 % of control | endpoint: median survival time, dose: 14.0 mg/kg/injection, schedule: Q01DX005 (ip), vehicle: Klucel (hydroxypropylcellulose) (HPC) 94 % of control and 96 % of control | endpoint: median survival time, dose: 25.0 mg/kg/injection, schedule: Q01DX005 (ip), vehicle: saline with Tween-80 95 % of control | endpoint: median survival time, dose: 28.0 mg/kg/injection, schedule: Q01DX005 (ip), vehicle: Klucel (hydroxypropylcellulose) (HPC) 98 % of control | endpoint: median survival time, dose: 50.0 mg/kg/injection, schedule: Q01DX005 (ip), vehicle: saline with Tween-80 96 % of control | endpoint: median survival time, dose: 56.0 mg/kg/injection, schedule: Q01DX005 (ip), vehicle: Klucel (hydroxypropylcellulose) (HPC) 101 % of control | endpoint: median survival time, dose: 100.0 mg/kg/injection, schedule: Q01DX005 (ip), vehicle: saline with Tween-80 91 % of control | endpoint: median survival time, dose: 200.0 mg/kg/injection, schedule: Q01DX005 (ip), vehicle: saline with Tween-80 95 % of control

Cc1[nH]c(=O)c(Br)cc1Br
inactive: [1] 98 % of control | [2] 101 % of control | [3] 101 % of control
